Values after ≈ are worked out from the molar mass of the structure shown.
Tests used:
[1] = Comparative test of solubility in water (Britton-Robinson buffer); format: physicochemical; details: aqueous buffer, Britton-Robinson buffer (ion strength of 0.3) at 25° C.
Description: 3-(3-(4-(Pyridin-2-ylmethoxy)-benzyl)-isoxazol-5-yl)-pyridin-2-ylamine described in Reference Example 1, which is the parent compound, and the compound of Example 1 were compared for solubility in a Britton-Robinson buffer (ion strength of 0.3) at 25° C.

[2] = tested on: C. albicans CAF2-1 strain; assay: Anti-Candida activity (MIC measurement); format: cell-based; details: CAF21STRAIN, RPMI1640 medium, 42-48 hours at 35° C., visual inspection, read-out: Anti-Candida (minimum inhibitory concentration, MIC)
Description: (§1) For the C. albicans CAF2-1 strain, a fungal suspension from a standing culture for 48 hours at 30° C. in a Sabouraud dextrose liquid culture medium (SDB) was diluted with RPMI1640 medium to adjust a fungal suspension of 1.2×10^3 cells/mL. For the A. fumigatus Tsukuba strain, −80° C. stored strain was diluted with RPMI1640 medium to adjust to a fungal suspension of 4.5×10^3 cells/mL.
(§2) Using a U-bottomed 96 well plate, 8 samples/plate (A to H) of sample dilution solutions were prepared. On the 2nd to 12th rows were dispensed 10 μl of dimethyl sulfoxide solution. Weighted sample was dissolved in dimethyl sulfoxide to prepare a 2.5 mg/mL solution, 20 μl of this solution was added to the first row of the prepared plate, and 12 steps of two-folded step dilutions (10 μl of solution+10 μl of dimethyl sulfoxide solution) were performed on the plate. This sample dilution solution was dispensed in the amount of 1 μl to a flat-bottomed 96 well plate for MIC measurement to prepare a sample dilution plate.
(§3) The fungal suspension prepared in (1) was used in the amount of […] to inoculate the flat-bottomed 96 well plate containing 1 μL/well of the test compound dilution prepared in (2), and a standing culture was carried out aerobically for 42-48 hours at 35° C.

[3] = tested on: A. fumigatus Tsukuba strain; assay: Anti-Aspergillus activity (MIC measurement); format: cell-based; details: RPMI1640 medium, 42-48 hours at 35° C., visual inspection, read-out: Anti-Aspergillus activity (minimum inhibitory concentration, MIC)
Description: as §1, §2, §3

[4] = Conversion into parent compound (active form) in human liver S9 fraction; format: in vitro ADME; details: human liver S9 reaction solution, 0.2 mg/mL protein, 10 μmol/L compound, pH 7.4, 37° C., 0, 30, 60 minutes, LC-MS (FIG. 1)
Description: (§4) A suspension (pH of 7.4) containing human and monkey liver S9 fractions (with a protein concentration of 0.22 mg/mL), 0.5 mmol/L magnesium chloride, and 100 mmol/L tris-HCl was prepared over ice (various reaction solutions A). 30 μL of a 100 μmol/mL aqueous solution of the compound according to the present invention (the compound of Example 1) was added to the various reaction solutions A (for a final compound concentration of 10 μmol/L) to obtain various liver S9 reaction solutions (with a final protein concentration of 0.2 mg/mL), and these were stored on ice until (2) was carried out. A control sample was prepared (reaction buffer solution) by adding 30 μL of a […] aqueous solution of the compound according to the present invention (the compound of Example 1) to 0.27 mL of a buffer (pH of 7.4) containing 0.5 mmol/L magnesium chloride and 100 mmol/L tris-HCl. […]
(§5) (3) The Concentrations of the Compound According to the Present Invention (the Compound of Example 1) and the Parent Compound (the Compound of Reference Example 1) in the Reaction Solution were Quantified by LC-MS.
(§6) The concentrations of the compound according to the present invention (the compound of Example 1) and the parent compound (the compound of Reference Example 1) in the reaction solution were measured by the method described in 2. above. […]

[5] = Conversion into parent compound (active form) in monkey liver S9 fraction; format: in vitro ADME; details: monkey liver S9 reaction solution, 0.2 mg/mL protein, 10 μmol/L compound, pH 7.4, 37° C., 0, 30, 60 minutes, LC-MS (FIG. 2)
Description: as §4, §5, §6

Row | SMILES | solubility ([1]; pH 3) | solubility ([1]; pH 7) | solubility ([1]; pH 9) | MIC [2] | MIC [3] | Conversion into the parent compound (compound of Reference Example 1) [4] | Conversion into the parent compound (compound of Reference Example 1) [5]
1 | Nc1ncccc1-c1cc(Cc2ccc(OCc3ccccn3)cc2)no1 [Reference Example 1, 3-(3-(4-(Pyridin-2-ylmethoxy)-benzyl)-isoxazol-5-yl)-pyridin-2-ylamine] | 400 µg/mL (≈ 1120 µM) | < 100 µg/mL | < 100 µg/mL | 0.2 µg/mL (≈ 0.558 µM) | 0.39 µg/mL (≈ 1.09 µM) |  | 
2 | Nc1ncccc1-c1cc(Cc2ccc(OCc3cccc[n+]3COP(=O)([O-])O)cc2)no1 [Example 1, 2-((4-((5-(2-Amino-3-pyridinyl)-3-isoxazolyl)methyl)phenoxy)methyl)-1-((phosphonooxy)methyl)pyridinium mono-trifluoroacetate] | > 70000 µg/mL | > 70000 µg/mL | > 70000 µg/mL |  |  | converted into the parent compound | converted into the parent compound

Reference: US20100331282A1, “PYRIDINE DERIVATIVE CONTAINING ((PHOSPHONOOXY)METHYL)PYRIDINIUM RING, AND ANTIFUNGAL AGENT CONTAINING THESE DERIVATIVE” (priority 2009, published 2010)
